Active and inactive are the calls of the source. Cut-off read from the data, not from the text of the source, for most assays here: actives have a measured EC50 and inactives only a lower limit.
Tests used:
Bcl-2-related protein A1 [1] = molecular target: T1, Bcl-2-related protein A1 (Mus musculus, UniProt Q07440); assay: small-molecule antagonists of Bfl-1/BH3 interaction – biochemical, TR-FRET, mouse Bfl-1, confirmation (AID 621);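 note: TR-FRET binding of GST-Bfl-1 to FITC-labelled Bid peptide via terbium antibody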
T1 sequence (Q07440 whole entry): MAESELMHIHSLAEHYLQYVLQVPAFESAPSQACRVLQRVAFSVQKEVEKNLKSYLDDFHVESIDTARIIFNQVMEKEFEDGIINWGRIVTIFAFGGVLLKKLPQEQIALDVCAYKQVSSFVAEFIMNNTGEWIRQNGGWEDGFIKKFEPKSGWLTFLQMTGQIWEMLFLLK

[2] = molecular target: Glyceraldehyde-3-phosphate dehydrogenase (Homo sapiens, UniProt P04406)
Sequence of Glyceraldehyde-3-phosphate dehydrogenase (P04406 whole entry): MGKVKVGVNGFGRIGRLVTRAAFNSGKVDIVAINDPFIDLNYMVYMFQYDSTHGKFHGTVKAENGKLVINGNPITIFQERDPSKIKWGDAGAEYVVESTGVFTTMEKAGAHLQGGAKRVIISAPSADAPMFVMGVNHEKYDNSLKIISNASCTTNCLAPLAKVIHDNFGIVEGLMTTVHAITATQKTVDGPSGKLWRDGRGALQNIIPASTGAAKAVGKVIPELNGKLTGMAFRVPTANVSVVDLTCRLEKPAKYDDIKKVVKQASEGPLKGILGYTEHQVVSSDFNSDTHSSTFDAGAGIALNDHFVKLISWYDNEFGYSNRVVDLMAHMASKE

Bcl-2-related protein A1 [3] = molecular target: T1, Bcl-2-related protein A1; assay: Bfl-1 binding inhibitors, SAR follow-up, biochemical, fluorescence polarization (AID 1070)
HeLa = assay: Cytotoxicity counterscreen assay for transcriptional activators of heat shock protein 70 (Hsp70). [Related pubchem assays: 1203, 1252 ]; assay type: functional; details: Homo sapiens;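 note: cells exposed to compound for 16 hours before readout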
[4] = molecular target: Polyadenylate-binding protein 1 (Homo sapiens, UniProt P11940); assay: blockers of PABP interaction with poly(A) – biochemical, fluorescence polarization, […] (AID 2014)
Sequence of Polyadenylate-binding protein 1 (P11940 whole entry): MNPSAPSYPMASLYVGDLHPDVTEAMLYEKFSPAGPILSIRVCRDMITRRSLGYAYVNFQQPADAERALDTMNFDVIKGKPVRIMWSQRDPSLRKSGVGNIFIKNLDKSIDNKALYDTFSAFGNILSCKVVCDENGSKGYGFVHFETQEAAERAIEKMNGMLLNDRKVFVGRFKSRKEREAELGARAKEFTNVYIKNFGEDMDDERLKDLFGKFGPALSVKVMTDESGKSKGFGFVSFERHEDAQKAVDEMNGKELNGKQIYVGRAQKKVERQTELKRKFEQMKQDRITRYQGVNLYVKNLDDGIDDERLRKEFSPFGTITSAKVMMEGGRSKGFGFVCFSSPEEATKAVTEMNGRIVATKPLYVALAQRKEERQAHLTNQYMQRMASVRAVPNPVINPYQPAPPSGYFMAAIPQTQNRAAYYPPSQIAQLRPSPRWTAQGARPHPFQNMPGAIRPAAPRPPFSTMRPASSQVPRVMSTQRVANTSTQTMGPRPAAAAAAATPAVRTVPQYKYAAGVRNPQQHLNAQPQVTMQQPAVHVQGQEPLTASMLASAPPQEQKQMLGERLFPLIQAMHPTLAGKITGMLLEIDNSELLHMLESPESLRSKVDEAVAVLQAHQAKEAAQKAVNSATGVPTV

[5] = molecular target: Eukaryotic translation initiation factor 4H (Homo sapiens, UniProt Q15056); assay: eIF4H binding inhibition – biochemical, uHTS, fluorescence polarization, translation initiation inhibitor project, primary screen (AID 2012)
[6] = alpha-synuclein stem-loop luciferase translation blockers – H4 neuroglioma cells, luminescence, confirmation (AID 1988); assay type: functional, cell-based
[7] = alpha-synuclein stem-loop translation blockers – luminescence, H4 neuroglioblastoma cells, dose confirmation, confirmation (AID 2454); assay type: functional, cell-based;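 note: H4 neuroglioblastoma cells carrying an alpha-synuclein 5'UTR luciferase reporter; potency for inhibition of the luciferase signal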
[8] = Luminescence Cell-Based Dose Response HTS to Identify Inhibitors of 5'UTR Stem-Loop Driven Prion Protein mRNA Translation in H4 Neuroglioblastoma Cells. [Related pubchem assays: 1827 (Project Summary), 1813 (Primary HTS)]; assay type: functional
[9] = luciferase reporter signal suppression in cells – H4 neuroglioma cells, luminescence, dose response (AID 1990); assay type: functional, cell-based
[10] = luciferase reporter signal reduction – luminescence, H4-C neuroglioblastoma cells, dose response (AID 2458); assay type: functional, cell-based;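 note: H4 neuroglioblastoma cells stably carrying a luciferase reporter gene fusion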
cells = assay type: functional, cell-based
[11] = molecular target: T2, RNA-binding protein pos-1 (Caenorhabditis elegans, UniProt G5EF15); assay: disruptors of C. elegans POS-1 RNA interaction – biochemical, fluorescence polarization, dose response (AID 1964);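 note: purified POS-1 fused to maltose binding protein made in E. coli; potency of compounds blocking POS-1 binding to fluorescent RNA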
T2 sequence (G5EF15 whole entry): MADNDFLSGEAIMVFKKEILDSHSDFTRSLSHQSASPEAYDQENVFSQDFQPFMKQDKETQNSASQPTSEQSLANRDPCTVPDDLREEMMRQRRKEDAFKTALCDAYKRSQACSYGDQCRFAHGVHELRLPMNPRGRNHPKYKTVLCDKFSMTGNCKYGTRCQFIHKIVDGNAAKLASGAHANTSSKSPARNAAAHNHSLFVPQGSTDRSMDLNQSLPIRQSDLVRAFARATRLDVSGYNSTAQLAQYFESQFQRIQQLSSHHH

[12] = molecular target: T3, Zinc finger protein mex-5 (Caenorhabditis elegans, UniProt Q9XUB2); assay: potency of MEX-5 RNA-binding blockers – biochemical, C. elegans, fluorescence polarization, dose response (AID 1960)
T3 sequence (Q9XUB2 whole entry): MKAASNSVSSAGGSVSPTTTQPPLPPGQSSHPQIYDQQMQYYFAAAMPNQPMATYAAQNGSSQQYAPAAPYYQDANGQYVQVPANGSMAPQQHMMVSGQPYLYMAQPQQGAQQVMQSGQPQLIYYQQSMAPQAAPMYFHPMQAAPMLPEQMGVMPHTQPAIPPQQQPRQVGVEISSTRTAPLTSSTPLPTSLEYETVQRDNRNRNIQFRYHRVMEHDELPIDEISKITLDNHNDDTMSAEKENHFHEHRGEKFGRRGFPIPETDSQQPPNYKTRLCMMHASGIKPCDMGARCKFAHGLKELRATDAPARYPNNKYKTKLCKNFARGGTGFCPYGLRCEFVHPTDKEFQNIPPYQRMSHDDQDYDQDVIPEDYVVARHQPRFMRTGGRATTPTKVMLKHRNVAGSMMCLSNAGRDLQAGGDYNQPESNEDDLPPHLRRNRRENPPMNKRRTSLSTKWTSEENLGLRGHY

[13] = molecular target: T4, Aryl hydrocarbon receptor (Homo sapiens, UniProt P35869); assay: Luminescence-based cell-based high throughput dose response assay for activators of the Aryl Hydrocarbon Receptor (AHR). [Related pubchem assays: 2796 (Primary screen (AHR activators in singlicate)), 2845 (Confirmation screen (AHR activators in triplicate)), 434939 (Counterscreen (PXR activators in triplicate)), 2804 (Summary (AHR activators))]; assay type: ADME
T4 sequence (P35869 whole entry): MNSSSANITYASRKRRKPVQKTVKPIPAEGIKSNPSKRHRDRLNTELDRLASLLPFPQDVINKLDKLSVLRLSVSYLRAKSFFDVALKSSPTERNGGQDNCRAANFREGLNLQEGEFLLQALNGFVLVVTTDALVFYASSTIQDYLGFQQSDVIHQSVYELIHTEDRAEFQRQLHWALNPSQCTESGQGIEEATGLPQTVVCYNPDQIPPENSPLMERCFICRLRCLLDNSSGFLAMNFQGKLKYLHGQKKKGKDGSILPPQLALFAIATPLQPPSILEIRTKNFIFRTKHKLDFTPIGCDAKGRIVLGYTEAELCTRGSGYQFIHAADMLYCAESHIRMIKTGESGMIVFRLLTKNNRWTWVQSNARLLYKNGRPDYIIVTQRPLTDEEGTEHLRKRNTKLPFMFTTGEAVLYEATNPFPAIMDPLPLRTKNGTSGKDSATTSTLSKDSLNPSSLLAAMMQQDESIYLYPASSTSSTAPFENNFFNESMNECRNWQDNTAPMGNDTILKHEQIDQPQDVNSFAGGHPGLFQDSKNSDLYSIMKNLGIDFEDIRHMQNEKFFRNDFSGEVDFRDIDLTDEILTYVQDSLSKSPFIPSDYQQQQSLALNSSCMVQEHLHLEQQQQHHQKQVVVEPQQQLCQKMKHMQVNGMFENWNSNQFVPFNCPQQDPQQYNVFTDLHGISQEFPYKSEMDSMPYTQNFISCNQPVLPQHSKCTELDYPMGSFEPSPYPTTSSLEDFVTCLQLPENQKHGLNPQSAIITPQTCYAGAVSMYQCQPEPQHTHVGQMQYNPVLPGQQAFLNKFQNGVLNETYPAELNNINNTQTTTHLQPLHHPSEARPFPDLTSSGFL

BJ [14] = assay: BJ-TERT fibroblast viability loss – cell-based, RAS-independent, luminescence, dose response (AID 1933); assay type: functional; details: Homo sapiens
INS1 = assay: INS-1E survival protection against cytokine death – cell-based, luminescence, retest, dose response (AID 449756); assay type: functional; details: Rattus norvegicus;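 note: cell death triggered by IL-1 beta plus TNF-alpha plus IFN-gamma mixture; protective hits raise ATP signal compared with cytokine alone wells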
[15] = HPDE-C7 pancreatic duct cell viability loss – fluorescence, HTS (AID 430); assay type: functional, cell-based; details: Homo sapiens
BJ [16] = assay: BJ-TERT-LT-ST fibroblast viability loss – cell-based, RAS-independent, luminescence, dose response (AID 1935); assay type: functional; details: Homo sapiens;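 note: BJ fibroblasts immortalized with TERT plus LT and ST oncogenes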
[17] = viability loss of HPDE-C7K cells – cell-based, fluorescence, HTS, primary screen (AID 431); assay type: functional; details: Homo sapiens
[18] = Luminescence Cell-Based Dose Retest to Confirm Inhibitors of Cancer Stem Cells. [Related pubchem assays (depositor defined):AID2717, AID2721]; assay type: functional; details: Homo sapiens
BJ [19] = assay: cells; assay type: functional, cell-based; details: Homo sapiens
[20] = DRD fibroblast viability loss – cell-based, non-viral oncogenic, luminescence, dose response (AID 1934); assay type: functional; details: Homo sapiens
Staphylococcus aureus = assay: Inhibitors of Bacterial Quorum Sensing Structure Activity Relationship (SAR) Analysis: Dose Response Assay. [Related pubchem assays: 700, 527 ]; assay type: functional, organism-based
[21] = molecular target: Luciferin 4-monooxygenase (Photinus pyralis, UniProt P08659); assay: Counter Screen for Luciferase-based Assay Positives. [Related pubchem assays: 620, 618, 411 ]
Sequence of Luciferin 4-monooxygenase (P08659 whole entry): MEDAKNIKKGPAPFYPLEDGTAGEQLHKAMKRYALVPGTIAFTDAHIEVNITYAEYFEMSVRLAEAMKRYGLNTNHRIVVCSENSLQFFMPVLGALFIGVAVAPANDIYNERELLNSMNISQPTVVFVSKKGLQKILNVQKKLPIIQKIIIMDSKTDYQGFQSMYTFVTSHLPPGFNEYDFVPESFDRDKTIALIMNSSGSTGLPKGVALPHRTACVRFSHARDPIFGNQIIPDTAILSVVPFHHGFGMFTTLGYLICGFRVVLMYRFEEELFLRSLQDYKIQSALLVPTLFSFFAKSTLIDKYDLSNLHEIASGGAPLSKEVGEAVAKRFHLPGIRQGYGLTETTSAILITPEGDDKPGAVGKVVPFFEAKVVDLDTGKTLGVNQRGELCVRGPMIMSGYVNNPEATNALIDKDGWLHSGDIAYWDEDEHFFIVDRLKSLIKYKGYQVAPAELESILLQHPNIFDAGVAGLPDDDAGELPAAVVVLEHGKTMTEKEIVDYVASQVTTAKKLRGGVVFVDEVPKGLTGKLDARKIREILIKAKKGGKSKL

HT-1080 = assay: HT1080 cell viability loss – fluorescence readout (AID 620); assay type: functional, cell-based; details: Homo sapiens

O=C1C(Cl)=C(N2CCN(Cc3ccc4c(c3)OCO4)CC2)C(=O)N1c1ccc(Cl)c(Cl)c1
IC50 (Bcl-2-related protein A1 [1]): 2.14 µM (active) | IC50 [2]: > 100 µM (not active) | IC50 (Bcl-2-related protein A1 [3]): 4.07 µM (active)

CCCOc1c(Br)cc(C(=O)NCC)cc1OC
CC50 (HeLa): > 99 µM (not active)

C[n+]1ccccc1/C=C/c1ccc(F)c(F)c1
IC50 [4]: 4.32 µM (active) | IC50 [5]: 97.9 µM (active)

CC(=O)O[C@@H]1/C=C/[C@](C)(O)C[C@@H](C)C/C=C/[C@H]2[C@@H]3O[C@]3(C)[C@@H](C)[C@H]3[C@H](Cc4ccccc4)NC(=O)[C@@]312 [EPOXYCYTOCHALASIN H]
EC50 [6]: < 0.1 µM (active) | EC50 [7]: 0.403 µM (active) | EC50 [8]: < 0.1 µM (active) | EC50 [9]: < 0.1 µM (active) | EC50 [10]: 0.431 µM (active) | EC50 (cells): 0.608 µM (active)

NS(=O)(=O)c1ccc(-c2ccc(/C=C3\SC(=O)NC3=O)o2)cc1
EC50 [11]: > 300 µM (not active) | EC50 [12]: 33.4 µM (active) | EC50 [13]: 0.237 µM (active)

Cc1nc2ccccc2n1-c1nc(-c2ccco2)cc(C(F)(F)F)n1
EC50 (BJ [14]): 1.28 µM (active) | EC50 [6]: 5.41 µM (active) | AC50 (INS1): 1.44 µM (active) | EC50 [8]: 9.22 µM (active) | EC50 [15]: 2.79 µM (active) | EC50 (BJ [16]): 2.38 µM (inconclusive) | EC50 [17]: 3.09 µM (active) | EC50 [9]: > 120 µM (not active) | AC50 [18]: 0.82 µM (active) | EC50 (BJ [19]): 23.3 µM (inconclusive) | EC50 [20]: 2.85 µM (active)

COc1ccc(NC(=O)C(c2cc3c(cc2[N+](=O)[O-])OCO3)N2CC(C)CC(C)C2)cc1 (configuration not stated)
IC50 (Staphylococcus aureus): 1.31 µM (active)

Cc1cc(C(F)(F)F)nc(S(C)(=O)=O)n1
IC50 (Bcl-2-related protein A1 [1]): > 100 µM (not active) | IC50 [2]: > 100 µM (not active) | IC50 (Bcl-2-related protein A1 [3]): > 100 µM (not active)

O=C(Nc1ccc2c(c1)OCCO2)c1cncc(Br)c1
EC50 [21]: 12.1 µM (active) | EC50 (HT-1080): > 50 µM (not active)
